We go through 21 compounds from patent US6545049B1, “Dimer-selective RXR modulators and methods for their use” (Ligand Pharmaceuticals Incorporated, priority 1995, dated 2003).

One may read the melting point as the temperature of the solid-liquid transition. One may read the Kd as the equilibrium constant for the complex coming apart.

Data set [1] addresses T1, RXRγ (Mus musculus, UniProt P28705).
T1 sequence (P28705 1-463): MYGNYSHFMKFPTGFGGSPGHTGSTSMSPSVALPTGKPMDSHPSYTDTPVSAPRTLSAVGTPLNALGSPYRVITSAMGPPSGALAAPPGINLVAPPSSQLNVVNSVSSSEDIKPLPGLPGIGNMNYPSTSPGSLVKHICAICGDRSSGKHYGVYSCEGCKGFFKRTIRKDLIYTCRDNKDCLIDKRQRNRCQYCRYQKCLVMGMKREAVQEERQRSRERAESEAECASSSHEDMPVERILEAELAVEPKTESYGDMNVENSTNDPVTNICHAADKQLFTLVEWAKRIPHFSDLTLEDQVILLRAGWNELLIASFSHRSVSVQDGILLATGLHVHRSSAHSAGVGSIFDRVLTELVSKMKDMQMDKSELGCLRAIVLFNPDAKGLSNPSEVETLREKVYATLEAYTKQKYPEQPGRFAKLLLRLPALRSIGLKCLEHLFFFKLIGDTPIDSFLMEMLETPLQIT
The data set is described as follows: RXR binding, RXRγ. As to conditions: -v- tritiated LGD1069 and tritiated 9-cis retinoic acid. The procedure: (§1) Non-specific binding was defined as that binding remaining in the presence of 500 nM of the appropriate unlabelled compound. At the end of the incubation period, bound from free ligand were separated. The amount of bound tritiated retinoids was determined by liquid scintillation counting of an aliquot (700 μL) of the supernatant fluid or the hydroxylapatite pellet.
(§2) After correcting for non-specific binding, IC50 values were determined. […] The IC50 value was determined graphically from a log-logit plot of the data. The Kd values were determined by application of the Cheng-Prussof equation to the IC50 values, the labeled ligand concentration and the Kd of the labeled ligand.

Data set [2] concerns the target T2, RXRα (Homo sapiens, UniProt P19793).
T2 sequence (P19793 1-462): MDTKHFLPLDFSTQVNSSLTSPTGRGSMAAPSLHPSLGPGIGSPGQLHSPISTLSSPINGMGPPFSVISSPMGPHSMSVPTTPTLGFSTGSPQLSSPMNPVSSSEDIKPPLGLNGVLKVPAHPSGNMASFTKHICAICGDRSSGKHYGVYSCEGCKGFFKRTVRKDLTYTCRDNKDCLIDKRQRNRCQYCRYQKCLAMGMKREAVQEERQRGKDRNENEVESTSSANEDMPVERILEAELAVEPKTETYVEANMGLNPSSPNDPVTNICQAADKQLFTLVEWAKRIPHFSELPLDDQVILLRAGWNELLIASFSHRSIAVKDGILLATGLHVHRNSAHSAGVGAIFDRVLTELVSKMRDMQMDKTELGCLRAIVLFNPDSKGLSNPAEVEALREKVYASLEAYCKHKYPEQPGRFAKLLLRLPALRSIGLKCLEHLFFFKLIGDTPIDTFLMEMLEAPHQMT
The data set is described as follows: RXR binding, RXRα. Conditions: -v- tritiated LGD1069 and tritiated 9-cis retinoic acid. The procedure:
as §1, §2

The target in data set [3] is T3, RXRβ (Mus musculus, UniProt P28704).
T3 sequence (P28704 1-520): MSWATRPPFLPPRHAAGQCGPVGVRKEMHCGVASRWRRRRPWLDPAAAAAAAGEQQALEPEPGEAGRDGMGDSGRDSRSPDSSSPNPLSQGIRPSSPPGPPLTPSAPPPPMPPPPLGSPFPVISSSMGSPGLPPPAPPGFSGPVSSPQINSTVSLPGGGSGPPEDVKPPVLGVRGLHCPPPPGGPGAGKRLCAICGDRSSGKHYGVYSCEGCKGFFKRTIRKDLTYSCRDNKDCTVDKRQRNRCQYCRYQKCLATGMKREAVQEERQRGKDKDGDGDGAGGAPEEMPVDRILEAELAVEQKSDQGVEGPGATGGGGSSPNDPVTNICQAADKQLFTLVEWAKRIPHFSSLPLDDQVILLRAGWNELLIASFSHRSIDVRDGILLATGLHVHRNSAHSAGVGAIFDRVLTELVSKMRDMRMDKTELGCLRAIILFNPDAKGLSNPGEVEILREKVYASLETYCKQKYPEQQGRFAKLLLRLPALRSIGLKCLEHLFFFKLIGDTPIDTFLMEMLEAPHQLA
The experiment in a line: RXR binding, RXRβ. As to conditions: -v- tritiated LGD1069 and tritiated 9-cis retinoic acid. The procedure:
as §1, §2

In turn, `CCCc1cc2c(cc1C(=O)c1ccc(C(=O)O)cc1)C(C)(C)CCC2(C)C` [Compound 101, 4-[(3-n-propyl-5,6,7,8-tetrahydro-5,5,8,8-tetramethyl-2-naphthyl)carbonyl]benzoic acid] registered a melting point of 252 to 254 °C.
The same measure, in the same setting: the figure for `Cc1cc2c(cc1C(=O)c1ccc(C(=O)NOCc3ccccc3)cc1)C(C)(C)CCC2(C)C` [Compound 105, 4-[(3,5,5,8,8-pentamethyl-5,6,7,8-tetrahydro-2-naphthyl)carbonyl]benzoic acid O-benzyloxime] is 169 to 172 °C; for `CCCCCCONC(=O)c1ccc(C(=O)c2cc3c(cc2C)C(C)(C)CCC3(C)C)cc1` [Compound 106, 4-[(3,5,5,8,8-pentamethyl-5,6,7,8-tetrahydro-2-naphthyl)carbonyl]benzoic acid O-hexyloxime] it is 91 to 95 °C.
Still for that read-out and setting: then `CCOc1cc2c(cc1C=Cc1ccc(C(=O)O)cc1)C(C)(C)CCC2(C)C` [Compound 107, 4-[(3-ethoxy-5,6,7,8-tetrahydro-5,5,8,8-tetramethyl-2-naphthyl)ethenyl]benzoic acid], with 195 to 200 °C (dec.); and `CCCCOc1cc2c(cc1C(=O)c1ccc(C(=O)O)cc1)C(C)(C)CCC2(C)C` [Compound 111, 4-[(3-butyloxy-5,6,7,8-tetrahydro-5,5,8,8-tetramethyl-2-naphthyl)carbonyl]benzoic acid], with 207 to 210 °C; and `CCCCOc1cc2c(cc1C=Cc1ccc(C(=O)O)cc1)C(C)(C)CCC2(C)C` [Compound 112, 4-[(3-butyloxy-5,6,7,8-tetrahydro-5,5,8,8-tetramethyl-2-naphthyl)ethenyl]benzoic acid], with 194 to 196 °C.
The same measure, in the same setting: then `CCCCCCCOc1cc2c(cc1C(=O)c1ccc(C(=O)NO)cc1)C(C)(C)CCC2(C)C` [Compound 115, 4-[(3-heptyloxy-5,6,7,8-tetrahydro-5,5,8,8-tetramethyl-2-naphthyl)carbonyl]benzoic acid oxime], with 200 to 205 °C; and `CCCCCCCOc1cc2c(cc1C=Cc1ccc(C(=O)O)cc1)C(C)(C)CCC2(C)C` [Compound 116, 4-[(3-heptyloxy-5,6,7,8-tetrahydro-5,5,8,8-tetramethyl-2-naphthyl)ethenyl]benzoic acid], with 153 to 155 °C.
`CCCCCCOc1cc2c(cc1/C(C)=C/C=C/C(C)=C/C(=O)O)C(C)(C)CCC2(C)C` [Compound 125, (2E, 4E, 6E)-7-[3-hexyloxy-5,6,7,8-tetrahydro-5,5,8,8-tetramethyl-2-naphthalen-2-yl]-3-methylocta-2,4,6-trienoic acid]: the figures for the dissociation constant (Kd) in data set [1], in data set [2] and in data set [3] were 186 nM, 56 nM and 145 nM, respectively.
The corresponding values for `COC(C)(c1ccc(C(=O)O)cc1)c1cccc2cc3c(cc12)C(C)(C)CCC3(C)C` (centres unmarked) [Compound 141, 4-[1-methoxy-1-(5,6,7,8-tetrahydro-5,5,8,8-tetramethyl-anthracen-1-yl)ethyl)benzoic acid] are 70 nM, 49 nM and 13 nM.
For the compound `C=C(c1ccc(C(=O)O)cc1)c1cccc2cc3c(cc12)C(C)(C)CCC3(C)C` [Compound 142, 4-[1-(5,6,7,8-tetrahydro-5,5,8,8-tetramethyl-anthracen-1-yl)vinyl)benzoic acid], the Kd in data set [1] came out at 50 nM; in data set [2], 27 nM; in data set [3], 90 nM.
Consider `CCCCCCCOc1c(/C(C)=C/C=C/C(C)=C/C(=O)O)cc(C(C)C)cc1C(C)C` [Compound 146, (2E, 4E, 6E)-7-(3,5-diisopropyl-2-n-heptyloxyphenyl)-3-methylocta-2,4,6-trienoic acid], for which the Kd was 116 nM in data set [1], 46 nM in data set [2] and 100 nM in data set [3].
On to `CCCCCCCOc1c(C(C)C)cc(C(C)C)cc1C(C)C/C=C/C(C)=C/C(=O)O` (centres unmarked) [Compound 148, (2E, 4E)-7-(3,5-diisopropyl-2-n-heptyloxyphenyl)-3-methylocta-2,4-dienoic acid], for which the dissociation constant (Kd) in data set [1] turned out to be 84 nM; in data set [2], 53 nM; in data set [3] it was 87 nM.
The corresponding values for `CCCCCCCOc1c(C(C)C)cc(C(C)C)cc1C(C)C/C=C/C(C)=C\C(=O)O` (centres unmarked) [Compound 149, (2Z, 4E)-7-(3,5-diisopropyl-2-n-heptyloxyphenyl)-3-methylocta-2,4-dienoic acid] are 42 nM, 16 nM and 37 nM.
On the same counts, the results for `CCCOc1cc2c(cc1C1=C(/C=C/C(C)=C/C(=O)O)CCC1)C(C)(C)CCC2(C)C` [Compound 158, (2E, 4E)-5-[2-(5,5,8,8-tetramethyl-3-propyloxy-5,6,7,8-tetrahydronaphthalen-2yl)cyclopent-1-en-1-yl]-3-methyl pentadienoic cid] are 106 nM, 21 nM and 53 nM.
On the same counts, the results for `CON=C(c1ccc(C(=O)O)cc1)c1cc2c(cc1OCc1ccccc1)C(C)(C)CCC2(C)C` [Compound 163, trans-4-[(3-benzyloxy-5,6,7,8-tetrahydro-5,5,8,8-tetramethyl-2-naphthyl)carbonyl]benzoic acid O-methyloxime] are 6 nM, 2 nM and 6 nM.
Take `CC(C=CC=C(C)c1cc2c(cc1OCC(C)C)C(C)(C)CCC2(C)C)=CC(=O)O` [Compound 169, (2E, 4E, 6Z)-7-[3-isobutyloxy-5,6,7,8-tetrahydro-5,5,8,8-tetramethyl-2-naphthalen-2-yl]-3-methyl-octa-2,4,6-trienoic acid]: the figures for the Kd in data set [1], in data set [2] and in data set [3] were 31 nM, 5 nM and 14 nM, respectively.
On the same counts, the results for `CCCCCOc1cc2c(cc1/C(C)=C/C=C/C(C)=C/C(=O)O)C(C)(C)CCC2(C)C` [Compound 170, (2E, 4E, 6E)-7-[3-pentyloxy-5,6,7,8-tetrahydro-5,5,8,8-tetramethyl-2-naphthalen-2-yl]-3-methyl-octa-2,4,6-trienoic acid] are 78 nM, 11 nM and 41 nM.
On the same counts, the results for `CCCCCCCOc1cc2c(cc1\C(C)=C/C=C/C(C)=C/C(=O)O)C(C)(C)CCC2(C)C` [Compound 173, (2E, 4E, 6Z)-7-[3-heptyloxy-5,6,7,8-tetrahydro-5,5,8,8-tetramethyl-2-naphthalen-2-yl]-3-methyl-octa-2,4,6-trienoic acid] are 21 nM, 4 nM and 12 nM.
The corresponding values for `COc1ccc(COc2cc3c(cc2/C(C)=C/C=C/C(C)=C/C(=O)O)C(C)(C)CCC3(C)C)cc1` [Compound 174, (2E, 4E, 6E)-7-[3-(4-methoybenzyloxy)-5,6,7,8-tetrahydro-5,5,8,8-tetramethyl-2-naphthalen-2-yl]-3-methyl-octa-2,4,6-trienoic acid] are 46 nM, 5 nM and 43 nM.
As for `CCCOc1cc2c(cc1C(C)C/C=C/C(C)=C/C(=O)O)C(C)(C)CCC2(C)C` (centres unmarked) [Compound 175, (2E, 4E)-7-[3-propoxy-5,6,7,8-tetrahydro-5,5,8,8-tetramethyl-2-naphthalen-2-yl]-3-methyl-octa-2,4-dienoic acid], the results for the Kd in data set [1], in data set [2] and in data set [3] were 31 nM, 11 nM and 21 nM, respectively.
